These results are taken from patent publication US20230234920A1, “Azirine Containing Compounds as Anti-Angiogenesis Agents and a Process for the Preparation Thereof” (COUNCIL OF SCIENTIFIC & INDUSTRIAL RESEARCH, priority 2020, published 2023).

One assay deals with Src-kinase. The assay can be described thus: Immunoblotting of treated HUVECs, Src-kinase. In kind it is cell-based, human. Particulars: 250 nM, 6 h. The method, then: (A) Serum-starved HUVECs were treated with control (0.1% DMSO), sunitinib and Compound 1 at a given concentrations and then incubated for 6 h. The expression level of phospho-VEGFR2 and GAPDH (housekeeping protein) was analyzed by immunoblotting. (B) Blots were quantified with Image-J software and the bar graphs represent the relative density of phospho-VEGFR2 normalized with GAPDH and the data are represented as mean±SEM with significant difference compared with control at *p<0.05. (D) Protein angiogenesis array showing up-regulation of anti-angiogenic protein and down-regulation of pro-angiogenic proteins on endothelial cell treated with Compound 1 at 260 nM.
Whole cell lysates of endothelial cells at 6 h of treatment with Compound 1 (250 nM) and sunitinib (50 nM) were prepared using the RIPA-lysis buffer. Proteins were fractionated and resolved on 8% SDS-PAGE gels and transferred onto PVDF membranes (Millipore). After incubation in blocking buffer (5% BSA in 1×TBST) for 1 h the membranes were incubated with primary antibodies specific for p-Akt and p-Src. GAPDH was used as housekeeping and loading control. The blots were then incubated with specific HRP-conjugated secondary antibodies and bands were visualized using ECL (Millipore) on Image Quant (LAS4010) chemiluminescence detection system. The band intensities were quantified using My Image Analysis software.

A further assay relates to Balb/c mice. The assay can be described thus: Matrigel plug assay. In kind it is in vivo. The method, then: (A) Post 7 days treatment of control (0.1% DMSO), sunitinib and Compound 1 at a given concentration, the mice was sacrificed and representative Matrigel plugs were excised and photographed. (B) Hemoglobin estimation was performed using drapkin's reagent and graph was plotted with data that are represented as mean±SEM from three independent experiments with significant difference from control at *p<0.05 using t-test analysis.
Compound 1 ability to modulate neovascularization was evaluated by matrigel plug assay, using mouse-VEGF and bFGF (R&D systems, Minneapolis) as stimulus. 300 μL of matrigel (Corning Inc., Corning, N.Y., USA) were allowed to liquefy at 4° C., supplemented with either VEGF […], bFGF […] and heparin (10 mg/mL) as a control or with sunitinib […] as a positive control. All groups and test groups having similar condition along with Compound 1 (750 nM) were carefully mixed with pre-chilled pipette tips to prevent aeration and gelatinization. […] Matrigel plugs were excised after photographs were taken and angiogenic response was evaluated by spectrophotometric measurement of hemoglobin content using the Drabkin's method according to the manufacturer's protocol (Cat no. D5941-6VL; Sigma, St. Louis, Mo.). Absorbance was measured at 540 nm and hemoglobin concentration was calculated.

Regarding `CCOC(=O)C1N=C1CCc1ccc(OC)cc1` (racemic) [Compound 1, Ethyl 3-(4-methoxyphenethyl)-2H-azirine-2-carboxylate], in the assay on Src-kinase, the Src-kinase expression entry was “marked reduction”. The “blood vessels formation through implanted Matrigel” value in the assay with Balb/c mice (750 nM) is “significant reduction in blood vessels formation”. Moreover, the hemoglobin concentration with Balb/c mice (750 nM in Matrigel) is 10 to 15 µg/mL.
